Article PMC7442609 (ACS chemical biology, 2020)
Read-outs that look alike come from different tables or passages of the source. Peptide text beside a SMILES is read from it. * marks the point of attachment. Cbz = O=C(OCc1ccccc1)*

Experiments:
[1] = tested on: RAW-Difluo mLC3 cells; experiment: RAW-Difluo mLC3 autophagy reporter assay; type: cell-based, murine; conditions: 16 hours
[2] = tested on: FoxM1; type: cell-based, murine; conditions: 5 μM, 16 hours, western blot
[3] = tested on: Parkin; type: cell-based, murine; conditions: 5 μM, 16 hr, western blot
[4] = tested on: PINK1; type: cell-based, murine; conditions: 5 μM, 16 hr, western blot
[5] = target: T1, proteasomes (Mus musculus, UniProt O55234+P70195+Q60692); experiment: Ub-R-GFP reporter assay of proteasomal activity in cells; type: cell-based, murine
T1 sequence (O55234 60-264): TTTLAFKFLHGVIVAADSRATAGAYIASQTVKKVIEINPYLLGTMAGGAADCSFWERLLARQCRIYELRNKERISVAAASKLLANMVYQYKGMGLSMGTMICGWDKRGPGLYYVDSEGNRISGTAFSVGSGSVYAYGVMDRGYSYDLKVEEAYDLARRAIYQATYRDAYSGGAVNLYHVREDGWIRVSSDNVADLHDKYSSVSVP
T1 sequence (Q60692 1-238): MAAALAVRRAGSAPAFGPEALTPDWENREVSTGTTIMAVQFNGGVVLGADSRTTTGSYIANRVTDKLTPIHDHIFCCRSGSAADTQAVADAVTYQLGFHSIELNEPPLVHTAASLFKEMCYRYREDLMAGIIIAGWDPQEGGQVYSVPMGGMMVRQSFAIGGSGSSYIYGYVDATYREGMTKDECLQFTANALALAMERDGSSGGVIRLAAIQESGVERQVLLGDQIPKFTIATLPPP
T1 sequence (P70195 44-277): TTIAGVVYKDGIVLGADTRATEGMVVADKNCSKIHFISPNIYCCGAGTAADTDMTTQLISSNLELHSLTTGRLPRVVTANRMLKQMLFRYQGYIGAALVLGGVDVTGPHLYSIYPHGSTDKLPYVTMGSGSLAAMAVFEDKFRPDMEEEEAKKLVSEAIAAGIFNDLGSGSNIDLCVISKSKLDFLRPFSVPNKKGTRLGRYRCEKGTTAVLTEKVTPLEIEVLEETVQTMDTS

[6] = target: 20S proteasome (Homo sapiens, UniProt P28072+P28074+Q99436); experiment: Proteasome-Glo assay on purified 20S proteasome; type: biochemical; conditions: 1 hr; for IC50 caspase-like activity / IC50 chymotrypsin-like activity / IC50 trypsin-like activity: purified 20S proteasome
[7] = tested on: Mtb H37Rv; experiment: Resazurin microtiter assay; type: cell-based, Mycobacterium tuberculosis
[8] = tested on: luxBCADE-expressing H37Rv Mtb in THP-1 cells; type: cell-based, Mycobacterium tuberculosis; conditions: for effect of WRT on anti-Mtb activity in macrophages: THP-1 cells, + WRT (15 μM), 7 days
[9] = tested on: RFP-LC3-THP-1 cells infected with Mtb; type: cell-based, human; conditions: 16 hr at 10 μM, TSR 2.5 μM
[10] = tested on: THP-1 cells; type: cell-based, human; conditions: uninfected THP-1 cells
[11] = tested on: EIF-2α; type: cell-based, murine; conditions: 5 μM, 16 hours, western blot

| Molecule | induction of autophagy (in words) [1] | FoxM1 protein levels [2] | inhibition of intracellular Mtb growth [8] | effect of WRT on anti-Mtb activity in macrophages [8] | autophagosomes (RFP-LC3 puncta) per Mtb infected cell [9] | further results |
| --- | --- | --- | --- | --- | --- | --- |
| C=C(NC(=O)C(=C)NC(=O)c1ccc2c(n1)-c1coc(n1)C(=C)NC(=O)C(=C)NC(=O)c1nc(oc1C)C(=C)NC(=O)C(C(C)(C)O)NC(=O)C(=C)NC(=O)c1nc(oc1C)/C(=C/C)NC(=O)C(C(C)O)NC(=O)c1csc-2n1)C(N)=O (stereo not drawn) [BER, berninamycin] | also induced autophagy | – | – | – | – | – |
| C=C(NC(=O)C(=C)NC(=O)c1csc(-c2ccc3c(n2)-c2csc(n2)-c2csc(n2)C2C(C)CC(O)N2C(=O)C(Cc2ccc(O)cc2)N=C(O)C2CSC(=N2)C(Cc2ccccc2)N=C(O)c2csc(n2)C(CC(N)=O)N=C(O)c2nc-3oc2C)n1)C(=O)O (stereo not drawn) [GE, GE37468] | induced autophagy at concentrations comparable to TSR | – | – | – | – | – |
| CC(C)C[C@@H](C=O)NC(=O)[C@H](CC(C)C)NC(=O)[C@H](CC(C)C)NC(=O)OCc1ccccc1 [MG-132] (Cbz-Leu-Leu-Leu-aldehyde) | – | significant decrease in FoxM1 protein levels | – | – | – | Parkin expression level [3]: little to no increase over basal levels; PINK1 expression level [4]: little to no increase over basal levels |
| C=C(NC(=O)c1csc(-c2nc3c(cc2O)-c2nc(cs2)C(=O)NC(C(C)O)C(=O)N/C(=C\C)c2nc(cs2)C(=O)NC2CC(O)C(=O)OCc4cccc5[nH]c(c(C)c45)C(=O)SCC(NC(=O)c4csc2n4)c2nc-3cs2)n1)C(N)=O (stereo not drawn) [NOS, nosiheptide] | induced autophagy at concentrations comparable to TSR | no effect on FoxM1 levels | potent inhibitory effects on intracellular Mtb growth | no significant effect on their anti-Mtb activity in macrophages | significantly increased the number of RFP-LC3 puncta per cell | EC50 [5]: 380 nM; direct inhibition of reconstituted 20S proteasome [6]: directly inhibited the proteasome; IC50 caspase-like activity [6]: low micromolar; IC50 chymotrypsin-like activity [6]: low micromolar; IC50 trypsin-like activity [6]: low micromolar; activity against Mtb in vitro (REMA, in words) ([7]; Mtb H37Rv in culture, 4 days): active against Mtb in vitro at IC50s comparable to kanamycin |
| C=C(NC(=O)C(=C)NC(=O)c1csc(C2=N[C@@H]3c4csc(n4)[C@H]4NC(=O)c5csc(n5)[C@H]([C@](C)(O)[C@@H](C)O)NC(=O)[C@H]5CSC(=N5)/C(=C/C)NC(=O)[C@H]([C@@H](C)O)NC(=O)c5csc(n5)[C@]3(CC2)NC(=O)[C@H](C)NC(=O)C(=C)NC(=O)[C@H](C)NC(=O)[C@H]([C@@H](C)CC)N[C@@H]2C=Cc3c([C@H](C)O)cc(nc3[C@H]2O)C(=O)O[C@@H]4C)n1)C(N)=O [TSR, thiostrepton] | potently induced autophagy | significant decrease in FoxM1 protein levels | potent inhibitory effects on intracellular Mtb growth | no significant effect on their anti-Mtb activity in macrophages | significantly increased the number of RFP-LC3 puncta per cell | EC50 [5]: 1450 nM; direct inhibition of reconstituted 20S proteasome [6]: directly inhibited the proteasome; IC50 caspase-like activity [6]: substantially less active; IC50 chymotrypsin-like activity [6]: sub-micromolar; IC50 trypsin-like activity [6]: sub-micromolar; activity against Mtb in vitro (REMA, in words) [7]: active against Mtb in vitro at IC50s comparable to kanamycin |
| COC[C@H]1OC(=O)c2coc3c2[C@@]1(C)C1=C(C3=O)[C@@H]2CCC(=O)[C@@]2(C)C[C@H]1OC(C)=O [WRT, wortmannin, reference compound] | – | – | – | – | < 5 | effect on thiopeptide-induced autophagy [10]: abrogates thiopeptide-induced autophagy |
| thiocillin III [TCIII] | also induced autophagy | – | potent inhibitory effects on intracellular Mtb growth | no significant effect on their anti-Mtb activity in macrophages | significantly increased the number of RFP-LC3 puncta per cell | EC50 ([1]; read-out: EC50 induction of autophagy (RFP-LC3 puncta per cell)): 90 nM; EIF-2α phosphorylation [11]: led to EIF-2α phosphorylation; activity against Mtb in vitro (REMA, in words) ([7]; Mtb H37Rv in culture, 4 days): active against Mtb in vitro at IC50s comparable to kanamycin |
